From ChEMBL document CHEMBL5696441 (Nat Chem Biol, 2011)

Assays:
[1] = test system: Tyrosine-protein kinase ABL1 (Homo sapiens), P00519 [G250E]; experiment: Inhibition of human ABL1 G250E mutant assessed as residual activity at 1 uM using Poly(Ala,Glu,Lys,Tyr)6:2:5:1 as substrate in presence of 33P-ATP by ProQinase assay relative to control
[2] = molecular target: Macrophage colony-stimulating factor 1 receptor (Homo sapiens) (UniProt P07333); experiment: Inhibition of human CSF1R assessed as residual activity at 1 uM using polyEY as substrate in presence of 33P-ATP by ProQinase assay relative to control
Sequence of Macrophage colony-stimulating factor 1 receptor (Homo sapiens) (P07333 whole entry): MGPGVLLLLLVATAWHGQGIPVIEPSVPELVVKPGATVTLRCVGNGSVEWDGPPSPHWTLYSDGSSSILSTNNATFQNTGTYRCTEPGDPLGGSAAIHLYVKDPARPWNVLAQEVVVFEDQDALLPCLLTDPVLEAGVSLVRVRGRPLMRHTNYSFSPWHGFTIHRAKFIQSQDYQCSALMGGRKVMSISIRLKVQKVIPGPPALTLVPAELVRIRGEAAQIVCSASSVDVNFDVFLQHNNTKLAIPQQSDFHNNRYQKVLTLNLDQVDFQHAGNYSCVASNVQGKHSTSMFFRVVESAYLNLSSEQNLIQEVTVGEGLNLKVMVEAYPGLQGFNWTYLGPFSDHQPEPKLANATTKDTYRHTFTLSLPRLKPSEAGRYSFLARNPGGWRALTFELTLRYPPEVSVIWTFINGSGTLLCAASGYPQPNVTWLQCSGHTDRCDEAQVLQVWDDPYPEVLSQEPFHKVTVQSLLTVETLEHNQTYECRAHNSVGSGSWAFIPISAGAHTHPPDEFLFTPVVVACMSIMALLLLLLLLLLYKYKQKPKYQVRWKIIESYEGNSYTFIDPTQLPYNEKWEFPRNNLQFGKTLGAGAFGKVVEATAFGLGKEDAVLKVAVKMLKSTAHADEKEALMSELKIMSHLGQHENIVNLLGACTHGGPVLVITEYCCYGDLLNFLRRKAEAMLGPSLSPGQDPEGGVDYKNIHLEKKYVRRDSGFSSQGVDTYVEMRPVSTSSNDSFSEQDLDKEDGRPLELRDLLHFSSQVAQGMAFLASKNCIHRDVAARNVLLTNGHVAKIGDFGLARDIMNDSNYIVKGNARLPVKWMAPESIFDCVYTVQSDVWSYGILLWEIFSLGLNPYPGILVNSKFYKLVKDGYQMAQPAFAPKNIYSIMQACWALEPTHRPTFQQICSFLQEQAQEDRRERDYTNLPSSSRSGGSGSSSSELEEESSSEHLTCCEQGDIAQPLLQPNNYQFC

[3] = molecular target: Calcium/calmodulin-dependent protein kinase type II subunit beta (Homo sapiens) (UniProt Q13554); experiment: Inhibition of CAMK2B (unknown origin) assessed as remaining activity at 1 uM by Kinome scan method relative to control
Sequence of Calcium/calmodulin-dependent protein kinase type II subunit beta (Homo sapiens) (Q13554 whole entry): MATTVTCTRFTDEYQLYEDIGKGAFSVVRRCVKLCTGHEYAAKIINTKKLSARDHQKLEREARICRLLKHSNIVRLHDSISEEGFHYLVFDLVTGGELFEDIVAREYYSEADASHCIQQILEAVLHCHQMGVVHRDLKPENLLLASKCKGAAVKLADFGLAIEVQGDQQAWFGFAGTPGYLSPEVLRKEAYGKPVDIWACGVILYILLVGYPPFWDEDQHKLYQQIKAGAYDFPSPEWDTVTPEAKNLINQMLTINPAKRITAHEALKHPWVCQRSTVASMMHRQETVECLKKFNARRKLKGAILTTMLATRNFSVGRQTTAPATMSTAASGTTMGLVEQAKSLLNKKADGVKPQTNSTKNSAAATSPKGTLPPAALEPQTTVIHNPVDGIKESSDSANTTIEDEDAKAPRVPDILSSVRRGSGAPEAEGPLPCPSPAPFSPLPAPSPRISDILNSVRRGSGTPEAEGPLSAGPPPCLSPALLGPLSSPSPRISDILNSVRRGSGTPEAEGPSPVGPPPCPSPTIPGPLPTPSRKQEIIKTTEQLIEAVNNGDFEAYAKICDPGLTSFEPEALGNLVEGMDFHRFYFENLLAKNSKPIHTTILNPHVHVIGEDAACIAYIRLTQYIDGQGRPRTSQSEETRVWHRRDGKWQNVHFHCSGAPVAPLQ

[4] = molecular target: Eukaryotic translation initiation factor 2-alpha kinase 3 (Homo sapiens) (UniProt Q9NZJ5); experiment: Inhibition of human EIF2AK3 assessed as residual activity at 1 uM using casein as substrate in presence of 33P-ATP by ProQinase assay relative to control
Sequence of Eukaryotic translation initiation factor 2-alpha kinase 3 (Homo sapiens) (Q9NZJ5 whole entry): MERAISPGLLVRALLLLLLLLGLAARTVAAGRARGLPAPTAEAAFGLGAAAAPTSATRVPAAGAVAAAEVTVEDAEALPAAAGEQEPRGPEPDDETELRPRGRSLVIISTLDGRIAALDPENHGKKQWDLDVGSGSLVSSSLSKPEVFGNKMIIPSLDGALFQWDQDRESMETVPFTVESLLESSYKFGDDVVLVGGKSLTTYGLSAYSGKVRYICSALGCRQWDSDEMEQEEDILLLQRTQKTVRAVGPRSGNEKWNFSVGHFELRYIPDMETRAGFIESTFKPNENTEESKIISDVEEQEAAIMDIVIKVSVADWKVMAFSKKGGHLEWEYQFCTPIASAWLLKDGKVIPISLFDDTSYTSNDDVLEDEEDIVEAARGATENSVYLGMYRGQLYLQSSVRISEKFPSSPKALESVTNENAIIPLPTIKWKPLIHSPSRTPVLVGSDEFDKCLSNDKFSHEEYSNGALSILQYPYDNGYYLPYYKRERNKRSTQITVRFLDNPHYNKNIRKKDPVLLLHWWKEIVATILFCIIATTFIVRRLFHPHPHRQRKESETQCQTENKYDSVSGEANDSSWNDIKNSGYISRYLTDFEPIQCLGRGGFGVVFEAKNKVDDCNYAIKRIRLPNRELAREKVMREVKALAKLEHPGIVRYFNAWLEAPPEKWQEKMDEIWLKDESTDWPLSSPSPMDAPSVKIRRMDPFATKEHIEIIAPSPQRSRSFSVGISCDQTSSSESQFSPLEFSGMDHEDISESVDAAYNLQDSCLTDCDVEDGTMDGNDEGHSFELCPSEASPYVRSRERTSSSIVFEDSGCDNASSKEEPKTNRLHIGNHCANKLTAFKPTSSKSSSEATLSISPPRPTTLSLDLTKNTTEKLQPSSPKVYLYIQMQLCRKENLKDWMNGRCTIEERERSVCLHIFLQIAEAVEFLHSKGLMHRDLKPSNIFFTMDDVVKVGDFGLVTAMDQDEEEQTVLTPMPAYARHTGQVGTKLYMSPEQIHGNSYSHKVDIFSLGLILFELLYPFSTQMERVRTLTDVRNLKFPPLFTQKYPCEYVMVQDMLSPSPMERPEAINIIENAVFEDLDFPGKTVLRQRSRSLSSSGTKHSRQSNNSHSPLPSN

[5] = test system: Hepatocyte growth factor receptor (Homo sapiens), P08581 [D1228N]; experiment: Inhibition of human MET D1228N mutant assessed as residual activity at 1 uM using poly(Ala,Glu,Lys,Tyr)6:2:5:1 as substrate in presence of 33P-ATP by ProQinase assay relative to control
[6] = molecular target: Tyrosine-protein kinase Lck (Homo sapiens) (UniProt P06239); experiment: Inhibition of LCK (unknown origin) assessed as remaining activity at 1 uM by Kinome scan method relative to control
Sequence of Tyrosine-protein kinase Lck (Homo sapiens) (P06239 2-509 limits assumed): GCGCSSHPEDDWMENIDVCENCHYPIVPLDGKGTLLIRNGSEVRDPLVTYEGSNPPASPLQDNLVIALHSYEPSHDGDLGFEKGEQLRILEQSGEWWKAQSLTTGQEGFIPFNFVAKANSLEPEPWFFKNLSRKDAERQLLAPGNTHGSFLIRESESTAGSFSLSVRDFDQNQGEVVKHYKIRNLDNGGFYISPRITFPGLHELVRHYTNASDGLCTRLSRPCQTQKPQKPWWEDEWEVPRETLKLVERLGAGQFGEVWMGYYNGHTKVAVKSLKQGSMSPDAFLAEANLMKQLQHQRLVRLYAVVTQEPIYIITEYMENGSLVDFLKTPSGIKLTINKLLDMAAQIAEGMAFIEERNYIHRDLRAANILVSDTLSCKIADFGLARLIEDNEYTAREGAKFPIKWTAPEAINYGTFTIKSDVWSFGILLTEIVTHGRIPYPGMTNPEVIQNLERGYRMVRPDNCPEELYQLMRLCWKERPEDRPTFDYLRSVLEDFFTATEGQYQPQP

[7] = molecular target: Beta-adrenergic receptor kinase 1 (Homo sapiens) (UniProt P25098); experiment: Inhibition of human GRK2 assessed as residual activity at 1 uM using casein as substrate in presence of 33P-ATP by ProQinase assay relative to control
Sequence of Beta-adrenergic receptor kinase 1 (Homo sapiens) (P25098 whole entry): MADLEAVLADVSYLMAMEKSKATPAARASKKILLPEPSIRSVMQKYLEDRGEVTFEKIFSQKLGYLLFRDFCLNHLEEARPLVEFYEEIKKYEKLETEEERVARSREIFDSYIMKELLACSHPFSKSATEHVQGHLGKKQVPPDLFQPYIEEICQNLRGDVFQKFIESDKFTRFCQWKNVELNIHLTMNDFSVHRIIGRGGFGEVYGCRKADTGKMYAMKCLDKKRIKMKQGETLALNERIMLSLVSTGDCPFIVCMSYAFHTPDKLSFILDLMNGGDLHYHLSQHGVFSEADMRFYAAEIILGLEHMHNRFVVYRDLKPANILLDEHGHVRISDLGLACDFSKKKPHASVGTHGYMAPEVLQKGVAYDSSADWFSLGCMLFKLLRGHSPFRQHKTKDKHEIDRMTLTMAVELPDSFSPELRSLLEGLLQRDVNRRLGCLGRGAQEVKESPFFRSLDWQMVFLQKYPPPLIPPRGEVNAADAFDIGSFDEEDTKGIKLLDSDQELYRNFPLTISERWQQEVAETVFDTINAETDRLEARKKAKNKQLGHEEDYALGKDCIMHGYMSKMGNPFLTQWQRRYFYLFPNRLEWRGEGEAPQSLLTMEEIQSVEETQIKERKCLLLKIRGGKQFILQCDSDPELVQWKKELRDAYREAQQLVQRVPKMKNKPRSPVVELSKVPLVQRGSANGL

[8] = test system: Leucine-rich repeat serine/threonine-protein kinase 2 (Homo sapiens), Q5S007 [G2019S]; experiment: Inhibition of human LRRK2 G2019S mutant assessed as residual activity at 1 uM using RBER-GSK3(14-27) as substrate in presence of 33P-ATP by ProQinase assay relative to control
[9] = molecular target: Tyrosine-protein kinase CSK (Homo sapiens) (UniProt P41240); experiment: Inhibition of human CSK assessed as residual activity at 1 uM using polyEY as substrate in presence of 33P-ATP by ProQinase assay relative to control
Sequence of Tyrosine-protein kinase CSK (Homo sapiens) (P41240 2-450 limits assumed): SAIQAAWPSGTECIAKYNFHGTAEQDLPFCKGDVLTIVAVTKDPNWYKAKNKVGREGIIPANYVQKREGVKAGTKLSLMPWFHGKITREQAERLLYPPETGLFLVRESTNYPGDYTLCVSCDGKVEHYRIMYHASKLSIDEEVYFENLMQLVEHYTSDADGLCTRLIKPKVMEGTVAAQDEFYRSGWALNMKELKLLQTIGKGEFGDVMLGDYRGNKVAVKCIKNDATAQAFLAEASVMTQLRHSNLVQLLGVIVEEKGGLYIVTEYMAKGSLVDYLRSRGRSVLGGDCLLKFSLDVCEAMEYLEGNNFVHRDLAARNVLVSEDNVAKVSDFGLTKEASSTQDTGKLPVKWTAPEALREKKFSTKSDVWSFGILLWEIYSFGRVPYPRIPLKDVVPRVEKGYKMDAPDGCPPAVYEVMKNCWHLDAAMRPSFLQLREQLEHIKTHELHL

[10] = test system: Hepatocyte growth factor receptor (Homo sapiens), P08581 [M1250T]; experiment: Inhibition of human MET M1250T mutant assessed as residual activity at 1 uM using poly(Ala,Glu,Lys,Tyr)6:2:5:1 as substrate in presence of 33P-ATP by ProQinase assay relative to control
[11] = test system: Tyrosine-protein kinase ABL1 (Homo sapiens), P00519 [Q252H]; experiment: Inhibition of human ABL1 Q252H mutant assessed as residual activity at 1 uM using Poly(Ala,Glu,Lys,Tyr)6:2:5:1 as substrate in presence of 33P-ATP by ProQinase assay relative to control
[12] = molecular target: LIM domain kinase 1 (Homo sapiens) (UniProt P53667); experiment: Inhibition of human LIMK1 assessed as residual activity at 1 uM using CFL2 as substrate in presence of 33P-ATP by ProQinase assay relative to control
Sequence of LIM domain kinase 1 (Homo sapiens) (P53667 whole entry, looked up, the tested form may be a part): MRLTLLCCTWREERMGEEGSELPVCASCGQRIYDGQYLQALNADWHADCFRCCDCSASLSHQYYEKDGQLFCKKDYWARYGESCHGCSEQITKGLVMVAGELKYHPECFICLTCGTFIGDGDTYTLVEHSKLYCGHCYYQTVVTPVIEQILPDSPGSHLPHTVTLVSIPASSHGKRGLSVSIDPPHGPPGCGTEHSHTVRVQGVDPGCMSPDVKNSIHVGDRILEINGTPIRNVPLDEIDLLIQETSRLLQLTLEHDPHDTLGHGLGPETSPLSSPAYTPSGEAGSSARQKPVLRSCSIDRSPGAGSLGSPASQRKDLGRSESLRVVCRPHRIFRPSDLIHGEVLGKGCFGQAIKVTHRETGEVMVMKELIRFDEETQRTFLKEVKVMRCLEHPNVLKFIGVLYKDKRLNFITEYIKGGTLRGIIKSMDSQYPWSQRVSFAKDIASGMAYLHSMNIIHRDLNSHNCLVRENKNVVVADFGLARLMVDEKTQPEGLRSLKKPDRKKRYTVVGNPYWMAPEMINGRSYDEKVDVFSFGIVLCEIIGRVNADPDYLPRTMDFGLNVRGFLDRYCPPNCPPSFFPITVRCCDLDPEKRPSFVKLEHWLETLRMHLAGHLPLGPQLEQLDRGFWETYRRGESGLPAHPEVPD

[13] = test system: Epidermal growth factor receptor (Homo sapiens), P00533 [G719S]; experiment: Inhibition of EGFR G719S mutant (unknown origin) assessed as remaining activity at 1 uM by Kinome scan method relative to control
[14] = molecular target: Glycogen synthase kinase-3 alpha (Homo sapiens) (UniProt P49840); experiment: Inhibition of human GSK3alpha assessed as residual activity at 1 uM using SUPT5 754-837 as substrate in presence of 33P-ATP by ProQinase assay relative to control
[15] = molecular target: T1, Serine/threonine-protein kinase Nek1 (Homo sapiens) (UniProt Q96PY6); experiment: Inhibition of human NEK1 assessed as residual activity at 1 uM using RBER-CHKtide as substrate in presence of 33P-ATP by ProQinase assay relative to control
T1 sequence (whole entry): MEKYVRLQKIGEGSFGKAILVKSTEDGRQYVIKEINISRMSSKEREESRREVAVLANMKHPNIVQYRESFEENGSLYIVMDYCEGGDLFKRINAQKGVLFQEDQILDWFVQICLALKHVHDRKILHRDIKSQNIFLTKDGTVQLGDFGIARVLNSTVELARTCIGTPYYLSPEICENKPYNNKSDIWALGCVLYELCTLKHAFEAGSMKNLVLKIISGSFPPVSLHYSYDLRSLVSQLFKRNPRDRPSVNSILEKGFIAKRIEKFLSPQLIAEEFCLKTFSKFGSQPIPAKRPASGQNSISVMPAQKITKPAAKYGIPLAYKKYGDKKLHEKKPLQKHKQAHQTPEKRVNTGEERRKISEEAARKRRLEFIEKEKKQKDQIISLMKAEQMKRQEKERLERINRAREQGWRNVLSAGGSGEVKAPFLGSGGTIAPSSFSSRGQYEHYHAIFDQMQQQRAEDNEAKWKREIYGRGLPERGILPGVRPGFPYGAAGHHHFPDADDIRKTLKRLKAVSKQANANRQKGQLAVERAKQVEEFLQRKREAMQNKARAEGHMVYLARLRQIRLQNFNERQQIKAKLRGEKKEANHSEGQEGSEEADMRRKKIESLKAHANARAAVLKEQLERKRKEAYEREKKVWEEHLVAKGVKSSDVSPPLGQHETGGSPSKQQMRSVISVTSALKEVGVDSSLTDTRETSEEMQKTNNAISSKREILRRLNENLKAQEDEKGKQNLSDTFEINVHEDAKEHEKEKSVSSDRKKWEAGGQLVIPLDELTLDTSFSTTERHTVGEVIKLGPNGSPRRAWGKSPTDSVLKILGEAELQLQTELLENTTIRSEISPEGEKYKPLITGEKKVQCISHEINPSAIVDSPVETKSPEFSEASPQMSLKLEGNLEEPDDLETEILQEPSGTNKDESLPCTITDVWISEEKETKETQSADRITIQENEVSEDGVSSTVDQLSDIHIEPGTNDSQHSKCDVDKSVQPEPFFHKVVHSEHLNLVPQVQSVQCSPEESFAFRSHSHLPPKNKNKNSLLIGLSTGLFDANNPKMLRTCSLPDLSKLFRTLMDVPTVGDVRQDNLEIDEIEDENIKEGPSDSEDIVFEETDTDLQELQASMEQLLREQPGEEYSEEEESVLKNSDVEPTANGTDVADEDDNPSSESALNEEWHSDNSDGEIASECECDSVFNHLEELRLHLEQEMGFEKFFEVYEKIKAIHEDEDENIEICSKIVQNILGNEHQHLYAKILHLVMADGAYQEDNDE

[16] = molecular target: Proto-oncogene tyrosine-protein kinase Src (Homo sapiens) (UniProt P12931); experiment: Inhibition of SRC (unknown origin) assessed as remaining activity at 1 uM by Kinome scan method relative to control

O=C1c2ccc(Nc3ccc(F)cc3F)cc2CCc2ccc(OC[C@H](O)CO)cc21 [Skepinone-L]
Activity [1]: 97%
Activity [2]: 106%
Activity [3]: 100%
Activity [4]: 95%
Activity [5]: 95%
Activity [6]: 100%
Activity [7]: 83%
Activity [8]: 77%
Activity [9]: 111%
Activity [10]: 100%
Activity [11]: 95%
Activity [12]: 109%
Activity [13]: 94%
Activity [14]: 93%
Activity [15]: 83%
Activity [16]: 100%
